Experimental data: PubChem BioAssay AID330 (DTP/NCI, 2004)
Values joined by “and” are separate entries in the source; they are usually repeats but may differ in a detail not shown here. Equal values may be shown once. Toxic doses and inconclusive results are not listed.

Tested on: P388 leukemia ip, CD2F1 mice, survival T/C
Assay: NCI In Vivo Anticancer Drug Screen. Data for tumor model P388 Leukemia (intraperitoneal) in CD2F1 (CDF1) mice
Settings: endpoint: median survival time, higher = longer survival
Procedure, shortened: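 Mice carrying the transplanted tumor received test compound or vehicle. Survival was recorded in each group, and the value is the treated-group measurement divided by that of the vehicle-treated control group.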

[1] = dose: 50.0 mg/kg/injection, schedule: Q01DX005 (ip), vehicle: Klucel (hydroxypropylcellulose) (HPC)
[2] = dose: 100.0 mg/kg/injection, schedule: Q01DX005 (ip), vehicle: Klucel (hydroxypropylcellulose) (HPC)
[3] = dose: 200.0 mg/kg/injection, schedule: Q01DX005 (ip), vehicle: Klucel (hydroxypropylcellulose) (HPC)
[4] = dose: 50.0 mg/kg/injection, schedule: Q01DX009 (ip), vehicle: Klucel (hydroxypropylcellulose) (HPC)
[5] = dose: 100.0 mg/kg/injection, schedule: Q01DX009 (ip), vehicle: Klucel (hydroxypropylcellulose) (HPC)
[6] = dose: 200.0 mg/kg/injection, schedule: Q01DX009 (ip), vehicle: Klucel (hydroxypropylcellulose) (HPC)
[7] = dose: 50.0 mg/kg/injection, schedule: Q01DX001 (ip), vehicle: saline with Tween-80
[8] = dose: 100.0 mg/kg/injection, schedule: Q01DX001 (ip), vehicle: saline with Tween-80
[9] = dose: 60.0 mg/kg/injection, schedule: Q01DX005 (ip), vehicle: saline with Tween-80
[10] = dose: 120.0 mg/kg/injection, schedule: Q01DX005 (ip), vehicle: saline with Tween-80
[11] = dose: 240.0 mg/kg/injection, schedule: Q01DX005 (ip), vehicle: saline with Tween-80
[12] = dose: 25.0 mg/kg/injection, schedule: Q01DX001 (ip), vehicle: saline with Tween-80
[13] = dose: 400.0 mg/kg/injection, schedule: Q01DX001 (ip), vehicle: saline with Tween-80
[14] = dose: 50.0 mg/kg/injection, schedule: Q01DX005 (ip), vehicle: saline with Tween-80

COC(=O)/C(C#N)=C/c1cc(OC)c(O)cc1Br was tested, and the T/C (dose: 25.0 mg/kg/injection, schedule: Q01DX005 (ip), vehicle: Klucel (hydroxypropylcellulose) (HPC)) was 104 % of control, the T/C [1] was 104 % of control and 88 % of control and the T/C [2] was 105 % of control. The T/C [3] was 100 % of control.

CSCNC(=S)Nc1ccc(Cl)cc1 was tested, and the T/C [4] was 94 % of control.

C[n+]1c(-c2ccc(/C=N/NC(=O)C(=O)N/N=C/c3ccc(-c4cn5ccccc5[n+]4C)cc3)cc2)cn2ccccc21 was tested, and the T/C (dose: 7.5 mg/kg/injection, schedule: Q01DX005 (ip), vehicle: saline) was 109 % of control and the T/C (dose: 15.0 mg/kg/injection, schedule: Q01DX005 (ip), vehicle: saline) was 119 % of control.

In the case of O=C1CC2(CCCC2)C(=O)N1c1ccccc1O, the T/C (dose: 25.0 mg/kg/injection, schedule: Q01DX009 (ip), vehicle: saline) is reported as 103 % of control, the T/C [4] is reported as 118 % of control and 94 % of control and the T/C (dose: 50.0 mg/kg/injection, schedule: Q01DX009 (ip), vehicle: saline) is reported as 96 % of control. For the same compound, the T/C [5] was 100 % of control, the T/C (dose: 100.0 mg/kg/injection, schedule: Q01DX009 (ip), vehicle: saline) was 96 % of control and the T/C [6] was 100 % of control. For the same compound, the T/C (dose: 200.0 mg/kg/injection, schedule: Q01DX009 (ip), vehicle: saline) was 96 % of control.

In the case of CCOCCC(=O)NCC(=O)NC1C(CO)OC(Nc2ncnc3nc[nH]c23)C(O)C1O (stereo not given), the T/C (dose: 3.12 mg/kg/injection, schedule: Q01DX009 (ip), vehicle: water) is reported as 98 % of control, the T/C (dose: 6.25 mg/kg/injection, schedule: Q01DX009 (ip), vehicle: water) is reported as 88 % of control and the T/C (dose: 12.5 mg/kg/injection, schedule: Q01DX009 (ip), vehicle: water) is reported as 98 % of control. For the same compound, the T/C (dose: 25.0 mg/kg/injection, schedule: Q01DX009 (ip), vehicle: water) was 106 % of control and the T/C (dose: 50.0 mg/kg/injection, schedule: Q01DX009 (ip), vehicle: water) was 101 % of control.

With CN(C)S(=O)(=O)c1cccc(N)c1 the T/C (dose: 25.0 mg/kg/injection, schedule: Q04DX003 (ip), vehicle: saline with Tween-80) was 93 % of control, the T/C (dose: 50.0 mg/kg/injection, schedule: Q04DX003 (ip), vehicle: saline with Tween-80) was 95 % of control and the T/C (dose: 100.0 mg/kg/injection, schedule: Q04DX003 (ip), vehicle: saline with Tween-80) was 100 % of control. For the same compound, the T/C (dose: 200.0 mg/kg/injection, schedule: Q04DX003 (ip), vehicle: saline with Tween-80) was 94 % of control.

With CCn1cc(C(=O)O)c(=O)c2ccc(C)nc21 (tested in a mixture with another compound) the T/C (dose: 100.0 mg/kg/injection, schedule: Q04DX002 (ip), vehicle: saline with Tween-80) was 99 % of control and the T/C (dose: 200.0 mg/kg/injection, schedule: Q04DX002 (ip), vehicle: saline with Tween-80) was 91 % of control.

In the case of C[C@]12CC[C@H](OC(=O)Cc3ccc(N(CCCl)CCCl)cc3)CC1CC[C@@H]1C2CC[C@]2(C)NC(=O)CCC12 (stereo not given in full), the T/C [7] is reported as 195 % of control and the T/C [8] is reported as 243 % of control and 294 % of control.

In the case of Cc1ccccc1C(C)(O)Cc1nccn1Cc1ccccc1 (stereo not given), the T/C [9] is reported as 99 % of control, the T/C [10] is reported as 104 % of control and the T/C [11] is reported as 96 % of control.

In the case of Nc1nnc(Cc2ccccc2[N+](=O)[O-])c(=O)[nH]1, the T/C [4] is reported as 113 % of control, the T/C [5] is reported as 115 % of control and the T/C [6] is reported as 105 % of control.

With N=C(N)c1ccc2oc(/C=C/c3ccc(-c4cc5cc(C(=N)N)ccc5o4)cc3)cc2c1 the T/C [1] was 98 % of control, the T/C [2] was 104 % of control and the T/C [3] was 104 % of control.

For C1CC2CCC1CNC2, the T/C (dose: 25.0 mg/kg/injection, schedule: Q04DX003 (ip), vehicle: saline) was 104 % of control, the T/C (dose: 50.0 mg/kg/injection, schedule: Q04DX003 (ip), vehicle: saline) was 104 % of control and the T/C (dose: 100.0 mg/kg/injection, schedule: Q04DX003 (ip), vehicle: saline) was 95 % of control.

In the case of COc1ccc2c(c1)[C@]13CCN(N=O)[C@H](C2)[C@@H]1CCC(=O)C3, the T/C [12] is reported as 92 % of control, the T/C [7] is reported as 108 % of control and the T/C [8] is reported as 106 % of control and 92 % of control.

With CCCC1SCC(=O)N1c1nncs1 (stereo not given) the T/C (dose: 30.0 mg/kg/injection, schedule: Q01DX005 (ip), vehicle: Klucel (hydroxypropylcellulose) (HPC)) was 94 % of control, the T/C (dose: 60.0 mg/kg/injection, schedule: Q01DX005 (ip), vehicle: Klucel (hydroxypropylcellulose) (HPC)) was 104 % of control and 111 % of control and the T/C (dose: 100.0 mg/kg/injection, schedule: Q01DX001 (ip), vehicle: Klucel (hydroxypropylcellulose) (HPC)) was 96 % of control. For the same compound, the T/C (dose: 120.0 mg/kg/injection, schedule: Q01DX005 (ip), vehicle: Klucel (hydroxypropylcellulose) (HPC)) was 120 % of control, the T/C (dose: 200.0 mg/kg/injection, schedule: Q01DX001 (ip), vehicle: Klucel (hydroxypropylcellulose) (HPC)) was 103 % of control and the T/C (dose: 240.0 mg/kg/injection, schedule: Q01DX005 (ip), vehicle: Klucel (hydroxypropylcellulose) (HPC)) was 166 % of control.

With CN1c2ccccc2S(=O)(=O)n2c(-c3ccccc3Cl)nnc21 the T/C [12] was 97 % of control, the T/C [7] was 96 % of control and the T/C [8] was 100 % of control and 95 % of control. For the same compound, the T/C [13] was 90 % of control.

For CCCC12C=C(OC)C(=O)C=C1OC(c1cc(OC)c(OC)c(OC)c1)C2C (stereo not given), the T/C (dose: 8.75 mg/kg/injection, schedule: Q01DX005 (ip), vehicle: Klucel (hydroxypropylcellulose) (HPC)) was 101 % of control, the T/C (dose: 17.5 mg/kg/injection, schedule: Q01DX005 (ip), vehicle: Klucel (hydroxypropylcellulose) (HPC)) was 96 % of control and the T/C (dose: 35.0 mg/kg/injection, schedule: Q01DX005 (ip), vehicle: Klucel (hydroxypropylcellulose) (HPC)) was 100 % of control.

For Cc1cc(NCCCCCCCNc2cc(C)nc3cc(N)ccc23)c2ccc(N)cc2n1, the T/C (dose: 1.56 mg/kg/injection, schedule: Q01DX009 (ip), vehicle: other) was 165 % of control, the T/C (dose: 3.13 mg/kg/injection, schedule: Q01DX009 (ip), vehicle: other) was 158 % of control and the T/C (dose: 6.25 mg/kg/injection, schedule: Q01DX009 (ip), vehicle: other) was 186 % of control and 196 % of control. For the same compound, the T/C (dose: 12.5 mg/kg/injection, schedule: Q01DX009 (ip), vehicle: other) was 157 % of control and 186 % of control.

With CC1C(=O)N(C)C(=O)N(C2CCCCC2)C1=O (stereo not given) the T/C [9] was 104 % of control, the T/C [10] was 104 % of control and the T/C [11] was 101 % of control.

In the case of CC(C)c1ccc(C[n+]2ccccc2/C=N/O)cc1, the T/C (dose: 12.5 mg/kg/injection, schedule: Q01DX005 (ip), vehicle: saline with Tween-80) is reported as 100 % of control, the T/C (dose: 25.0 mg/kg/injection, schedule: Q01DX005 (ip), vehicle: saline with Tween-80) is reported as 95 % of control and the T/C [14] is reported as 103 % of control.

C[C@@H]1C[C@H](C)OC(CO)O1 (stereo not given in full) (tested in a mixture with another compound) was tested, and the T/C (dose: 60.0 mg/kg/injection, schedule: Q01DX005 (ip), vehicle: saline) was 100 % of control, the T/C (dose: 120.0 mg/kg/injection, schedule: Q01DX005 (ip), vehicle: saline) was 99 % of control and the T/C (dose: 240.0 mg/kg/injection, schedule: Q01DX005 (ip), vehicle: saline) was 97 % of control.

With C[C@@H]1CCC[C@H]1CC(N)C(=O)O (stereo not given in full) the T/C [14] was 99 % of control, the T/C (dose: 100.0 mg/kg/injection, schedule: Q01DX005 (ip), vehicle: saline with Tween-80) was 95 % of control and the T/C (dose: 200.0 mg/kg/injection, schedule: Q01DX005 (ip), vehicle: saline with Tween-80) was 91 % of control.

In the case of CC(=O)Nc1cccc2c1C(=O)c1nccnc1C2=O, the T/C (dose: 12.5 mg/kg/injection, schedule: Q04DX002 (ip), vehicle: Klucel + Tween-80) is reported as 99 % of control, the T/C (dose: 25.0 mg/kg/injection, schedule: Q04DX002 (ip), vehicle: Klucel + Tween-80) is reported as 98 % of control and the T/C (dose: 50.0 mg/kg/injection, schedule: Q04DX002 (ip), vehicle: Klucel + Tween-80) is reported as 91 % of control.

Nc1ccc(C(=O)c2ccccc2)cc1 was tested, and the T/C (dose: 25.0 mg/kg/injection, schedule: Q01DX009 (ip), vehicle: saline with Tween-80) was 93 % of control, the T/C (dose: 50.0 mg/kg/injection, schedule: Q01DX009 (ip), vehicle: saline with Tween-80) was 100 % of control and the T/C (dose: 100.0 mg/kg/injection, schedule: Q01DX009 (ip), vehicle: saline with Tween-80) was 102 % of control.

In the case of COc1nc2c(ccn2C2OC(COC(C)=O)C(OC(C)=O)C(OC(C)=O)C2OC(C)=O)c(=O)[nH]1 (stereo not given), the T/C [8] is reported as 104 % of control, the T/C (dose: 200.0 mg/kg/injection, schedule: Q01DX001 (ip), vehicle: saline with Tween-80) is reported as 100 % of control and the T/C [13] is reported as 100 % of control.
